Drawing on patent US8865911B2, “Compounds and their use as BACE inhibitors” (Astrazeneca AB, priority 2010, dated 2014), this text covers IC50 for 24 molecules.

Assay [1] has as its system sAPPβ release, SH-SY5Y cells. Nature of the assay: sAPPβ release assay. The note with it: compounds incubated 17 h, MSD detection. It is filed as cell-based. The method, then: Thaw cells and seed at a conc. of around 10000 cells/well in DMEM/F-12 with Glutamax, 10% FCS and 1% non-essential amino acids to a 384-well tissue culture treated plate, 100 μL cell susp/well. […] The cell medium was removed, followed by addition of 30 μL compound diluted in DMEM/F-12 with Glutamax, 10% FCS, 1% non-essential amino acids and 1% PeSt to a final conc. of 1% DMSO. The compounds were incubated with the cells for 17 h (overnight) at 37° C., 5% CO2. Meso Scale Discovery (MSD) plates were used for the detection of sAPPβ release. MSD sAPPβ plates were blocked in 1% BSA in Tris wash buffer (40 μL/well) for 1 h on shake at r.t. and washed 1 time in Tris wash buffer (40 μL/well). 20 μL of medium was transferred to the pre-blocked and washed MSD sAPPβ microplates, and the cell plates were further used in an ATP assay to measure cytotoxicity. The MSD plates were incubated with shaking at r.t. for 2 h and the media discarded. 10 μL detection antibody was added (1 nM) per well followed by incubation with shaking at r.t. for 2 h and then discarded. 40 μL Read Buffer was added per well and the plates were read in a SECTOR Imager.

For assay [2], the target named is T1, human β-Secretase (Homo sapiens (Human), UniProt P56817). Nature of the assay: Diluted TR-FRET assay. The format is biochemical. To be noted: values marked ^a; 50 times less enzyme, 6.5 h reaction time at r.t. in the dark; read-out: IC50 in TR-FRET assay (IC50 from the diluted FRET assay). The method, then:
(§1) The β-secretase enzyme used in the TR-FRET is prepared as follows: The cDNA for the soluble part of the human β-Secretase (AA 1-AA 460) was cloned using the ASP2-Fc10-1-IRES-GFP-neoK mammalian expression vector. The gene was fused to the Fc domain of IgG1 (affinity tag) and stably cloned into HEK 293 cells.
The robotic systems Biomek FX and Velocity 11 were used for all liquid handling and the enzyme and substrate solutions were kept on ice until they were placed in the robotic system. Enzyme (9 μl) was added to the plate then 1 μl of compound in dimethylsulphoxide was added, mixed and pre-incubated for 10 minutes. […] The reaction was stopped with the addition of Stop solution (7 μl, NaAcetate, pH 9). […] The dimethylsulphoxide control, instead of test compound, defined the 100% activity level and 0% activity was defined by wells lacking enzyme (replaced with reaction buffer).
In general terms: TR-FRET usually uses a lanthanide donor and a delayed reading to cut background.

Assay [3] has as its target T1, human β-Secretase. Nature of the assay: TR-FRET assay. The format is biochemical. The note with it: sBACE-Fc, substrate (Europium)CEVNLDAEFK(Qsy7) 100 nM, pH4.5, 15 minutes at r.t. The method, then: as §1
The robotic systems Biomek FX and Velocity 11 were used for all liquid handling and the enzyme and substrate solutions were kept on ice until they were placed in the robotic system. Enzyme (9 μl) was added to the plate then 1 μl of compound in dimethylsulphoxide was added, mixed and pre-incubated for 10 minutes. Substrate (10 μl) was then added, mixed and the reaction proceeded for 15 minutes at r.t. The reaction was stopped with the addition of Stop solution (7 μl, NaAcetate, pH 9). […] The dimethylsulphoxide control, instead of test compound, defined the 100% activity level and 0% activity was defined by wells lacking enzyme (replaced with reaction buffer).

T1 sequence (P56817 22-460): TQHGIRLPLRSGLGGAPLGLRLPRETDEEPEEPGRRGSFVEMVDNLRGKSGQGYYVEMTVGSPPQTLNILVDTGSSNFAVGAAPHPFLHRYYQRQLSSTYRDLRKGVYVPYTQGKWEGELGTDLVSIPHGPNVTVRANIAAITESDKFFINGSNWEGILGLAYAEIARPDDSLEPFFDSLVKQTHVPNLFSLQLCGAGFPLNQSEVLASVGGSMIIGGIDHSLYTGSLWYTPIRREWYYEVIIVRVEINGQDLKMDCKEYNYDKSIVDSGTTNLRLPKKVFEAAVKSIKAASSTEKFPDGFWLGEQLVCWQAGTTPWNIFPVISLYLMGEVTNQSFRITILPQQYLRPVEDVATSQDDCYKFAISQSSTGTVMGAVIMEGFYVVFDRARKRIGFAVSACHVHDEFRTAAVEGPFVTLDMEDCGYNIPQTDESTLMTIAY

In general, IC50 refers to the point on the concentration scale where inhibition reaches its midpoint. For the molecule `CC1=NC2(CC3(CCCOC3)Oc3ccc(-c4ccc(F)c(Cl)c4)cc32)N=C1N` (single isomer, unassigned) [Example 46b Isomer 1, 6′-(3-Chloro-4-fluorophenyl)-5-methyl-5″,6″-dihydro-4′H-dispiro[imidazole-2,4′-chromene-2′,3″-pyran]-4-amine], the IC50 in assay [1] is 426 nM.

Take `CCC1=NC2(N=C1N)c1cc(-c3cncc(C#N)c3)ccc1C[C@]21CC[C@@H](OC)CC1` (stereo partly drawn) [Example 69, 5-[(1r,4r)-4″-Amino-5″-ethyl-4-methoxy-3′H-dispiro[cyclohexane-1,2′-indene-1′,2″-imidazol]-6′-yl]pyridine-3-carbonitrile]: the IC50 at human β-Secretase [2] was determined as 21 nM. As to `CO[C@H]1CC[C@]2(CC1)Cc1ccc(-c3cncc(F)c3)cc1C21N=C(C)C(N)=N1` (stereo partly drawn) [Example 20f, (1r,4r)-6′-(5-Fluoropyridin-3-yl)-4-methoxy-5″-methyl-3′H-dispiro[cyclohexane-1,2′-indene-1′,2″-imidazol]-4″-amine], the IC50 at human β-Secretase [2] came to 5.5 nM. The same measure, in the same setting: the same measure for `CO[C@H]1CC[C@]2(CC1)Cc1ccc(NC(=O)c3ncc(Cl)cc3C)cc1C21N=C(C)C(N)=N1` (stereo partly drawn) [Example 20w, N-[(1r,4r)-4″-Amino-4-methoxy-5″-methyl-3′H-dispiro[cyclohexane-1,2′-indene-1′,2″-imidazol]-6′-yl]-5-chloro-3-methylpyridine-2-carboxamide]: 18 nM. Take `CO[C@H]1CC[C@]2(CC1)Cc1ccc(-c3ccccc3)cc1[C@@]21N=C(C)C(N)=N1` [Example 90, (1r,1′R,4R)-4-Methoxy-5″-methyl-6′-phenyl-3′H-dispiro[cyclohexane-1,2′-indene-1′,2″-imidazol]-4″-amine]: the IC50 at human β-Secretase [2] is 13 nM. The molecule `CO[C@H]1CC[C@]2(CC1)Cc1ccc(-c3cc(Br)cc(C#N)c3)cc1C21N=C(C)C(N)=N1` (single isomer, unassigned; isomer 1) [Example 94 Isomer 1, 3-[(1r,4r)-4″-Amino-4-methoxy-5″-methyl-3′H-dispiro[cyclohexane-1,2′-indene-1′,2″-imidazol]-6′-yl]-5-bromobenzonitrile] showed an IC50 in assay [1] of 0.17 nM. As to `COc1cc(C#N)cc(-c2ccc3c(c2)[C@@]2(N=C(C)C(N)=N2)[C@]2(CC[C@H](OC(F)F)CC2)C3)c1` (racemic) [Example 106, 3-[(1r,4r)-4″-Amino-4-(difluoromethoxy)-5″-methyl-3′H-dispiro[cyclohexane-1,2′-indene-1′,2″-imidazol]-6′-yl]-5-methoxybenzonitrile], the IC50 at human β-Secretase [2] was found to be 1 nM. On the same count and under the same terms, the same measure for `CCc1cc(C#N)cc(-c2ccc3c(c2)C2(N=C(C)C(N)=N2)[C@]2(CC[C@H](OC)CC2)C3)c1` (stereo partly drawn) [Example 95, 3-[(1r,4r)-4″-Amino-4-methoxy-5″-methyl-3′H-dispiro[cyclohexane-1,2′-indene-1′,2″-imidazol]-6′-yl]-5-ethylbenzonitrile]: 5.3 nM. Same read-out and setting: the same measure for `COC1CCC2(CC1)Oc1ccc(-c3cncc(Cl)c3)cc1C21N=C(C)C(N)=N1` (stereo not drawn) [Example 30d, 5′-(5-Chloropyridin-3-yl)-4-methoxy-5′-methyldispiro[cyclohexane-1,2′-[1]benzofuran-3′,2″-imidazol]-4″-amine]: 5.2 nM; for `CO[C@H]1CC[C@]2(CC1)Cc1ccc(-c3cc(Cl)cnc3C)cc1C21N=C(C)C(N)=N1` (stereo partly drawn) [Example 62, (1r,4r)-6′-(5-Chloro-2-methylpyridin-3-yl)-4-methoxy-5″-methyl-3′H-dispiro[cyclohexane-1,2′-indene-1′,2″-imidazol]-4″-amine]: 19 nM. Regarding `COc1ccc(F)c(-c2ccc3c(c2)[C@@]2(N=C(C)C(N)=N2)[C@]2(CC[C@H](OC)CC2)C3)c1` [Example 98, (1r,1′R,4R)-6′-(2-Fluoro-5-methoxyphenyl)-4-methoxy-5″-methyl-3′H-dispiro[cyclohexane-1,2′-indene-1′,2″-imidazol]-4″-amine], the IC50 on human β-Secretase [2] is 1.5 nM.

The molecule `CCC1=NC2(N=C1N)c1cc(-c3cccc(C#N)c3)ccc1C[C@]21CC[C@@H](OC)CC1` (single isomer, unassigned) [Example 71 Isomer 2, 3-[(1r,4r)-4″-amino-5″-ethyl-4-methoxy-3′H-dispiro-[cyclohexane-1,2′-indene-1′,2″-imidazol]-6′-yl]benzonitrile] had an IC50 in assay [1] (listed as 71 Isomer 2) of 763 nM. With `CC#Cc1cc(-c2ccc3c(c2)C2(N=C(C)C(N)=N2)[C@]2(CC[C@H](OC)CC2)C3)ccn1` (stereo partly drawn) [Example 20y, (1r,4r)-4-Methoxy-5″-methyl-6′-[2-(prop-1-yn-1-yl)pyridin-4-yl]-3′H-dispiro[cyclohexane-1,2′-indene-1′,2″-imidazol]-4″-amine], the IC50 at human β-Secretase [2] was 4.9 nM. On to `CO[C@H]1CC[C@]2(CC1)Cc1ccc(-c3cc(C)cc(C#N)c3)cc1C21N=C(C)C(N)=N1` (stereo partly drawn) [Example 74, 3-[(1r,4r)-4″-Amino-4-methoxy-5″-methyl-3′H-dispiro[cyclohexane-1,2′-indene-1′,2″-imidazol]-6′-yl]-5-methylbenzonitrile], for which, on human β-Secretase [2], the IC50 came to 2.6 nM. The same measure, in the same setting: next, `CC#Cc1cncc(-c2ccc3c(c2)C2(N=C(C)C(N)=N2)C2(CCC(OC)CC2)O3)c1` (stereo not drawn) [Example 30c]: 1.4 nM; `CO[C@H]1CC[C@]2(CC1)Cc1ccc(-c3cc(C#N)cc(C(F)F)c3)cc1[C@@]21N=C(C)C(N)=N1` [Example 86, 3-[(1r,1′R,4R)-4″-Amino-4-methoxy-5″-methyl-3′H-dispiro[cyclohexane-1,2′-indene-1′,2″-imidazol]-6′-yl]-5-(difluoromethyl)benzonitrile]: 1.5 nM; `CC#Cc1ccnc(-c2ccc3c(c2)C2(N=C(C)C(N)=N2)[C@]2(CC[C@H](OC)CC2)C3)c1` (stereo partly drawn) [Example 20b, (1r,4r)-4-Methoxy-5″-methyl-6′-[4-(prop-1-yn-1-yl)pyridin-2-yl]-3′H-dispiro[cyclohexane-1,2′-indene-1′,2″-imidazol]-4″-amine]: 2.3 nM. In turn, `CC1=NC2(CC(C3CCCOC3)Oc3ccc(Br)cc32)N=C1N` (single isomer, unassigned) [Example 47 Isomer 8, 6-Bromo-5′-methyl-2-(tetrahydro-2H-pyran-3-yl)spiro[chromane-4,2′-imidazole]-4′-amine] displayed an IC50 against human β-Secretase [3] of 8100 nM.

Consider `CCC1=NC2(N=C1N)c1cc(Br)ccc1C[C@]21CC[C@@H](OC)CC1` (stereo partly drawn) [Example 64, (1r,4r)-6′-Bromo-5″-ethyl-4-methoxy-3′H-dispiro[cyclohexane-1,2′-indene-1′,2″-imidazol]-4″-amine], for which the half-inhibitory concentration (IC50) against human β-Secretase [3] was 401 nM. `CC1=NC2(N=C1N)c1cc(-c3cc(Cl)cc(C#N)c3)ccc1C[C@]21CC[C@@H](OC(F)F)CC1` (stereo partly drawn) [Example 108, 3-[(1r,4r)-4″-Amino-4-(difluoromethoxy)-5″-methyl-3′H-dispiro[cyclohexane-1,2′-indene-1′,2″-imidazol]-6′-yl]-5-chlorobenzonitrile]: the IC50 on human β-Secretase [2] is 1.3 nM. `CC#CCOc1ccc(C(=O)Nc2ccc3c(c2)C2(CCO3)N=C(C)C(N)=N2)nc1` (stereo not drawn) [Example 13d, N-(4′-amino-5′-methylspiro[chroman-4,2′-imidazole]-6-yl)-5-(but-2-ynyloxy)picolinamide]: at human β-Secretase [3], the IC50 amounted to 112 nM.

Take `CO[C@H]1CC[C@]2(CC1)Cc1ccc(-c3cc(F)ccc3F)cc1[C@@]21N=C(C)C(N)=N1` [Example 99, (1r,1′R,4R)-6′-(2,5-Difluorophenyl)-4-methoxy-5′-methyl-3′H-dispiro[cyclohexane-1,2′-indene-1′,2″-imidazol]-4″-amine]: on human β-Secretase [2], the IC50 is 3.9 nM. Consider `CC1=NC2(CC(C3CCCOC3)Oc3ccc(Br)cc32)N=C1N` (single isomer, unassigned) [Example 47 Isomer 5, 6-Bromo-5′-methyl-2-(tetrahydro-2H-pyran-3-yl)spiro[chromane-4,2′-imidazole]-4′-amine], for which the IC50 against human β-Secretase [3] came to 19800 nM.

On to `CC1=NC2(N=C1N)c1cc(-c3cccc(Cl)c3)ccc1CC21CCOCC1` (stereo not drawn) [Example 26a, 6′-(3-Chlorophenyl)-5-methyl-2″,3″,5″,6″-tetrahydro-3′H-dispiro[imidazole-2,1′-indene-2′,4″-pyran]-4-amine], for which the midpoint of inhibition against human β-Secretase [3], the IC50, lay at 100 nM.
